Source: patent publication US9951014B2, “Mammalian and bacterial nitric oxide synthase inhibitors” (Northwestern University, priority 2014, dated 2018)
Read-outs that look alike come from different tables or passages of the source.

Assays:
rat nNOS = rat nNOS (Rattus norvegicus (Rat), UniProt P29476); assay: Oxyhemoglobin NO capture assay with purified NOS; type: biochemical
Protocol: (§1) The oxyhemoglobin NO assays were performed with purified NOSs using a Biotek Gen5™ microplate reader as previously reported. […] For iNOS, calmodulin and CaCl2 were omitted because iNOS is calcium independent. […] The calculated standard deviations of the assays were less than 10% with all NOSs. […] The selectivity of antagonism of nNOS was determined by calculating the ratios of the Ki values with iNOS or eNOS to those with rat nNOS.

murine iNOS = murine iNOS (Mus musculus (Mouse), UniProt P29477); assay: Oxyhemoglobin NO capture assay with purified NOS; type: biochemical
Protocol: as §1

bovine eNOS = bovine eNOS (Bos taurus (Bovine), UniProt P29473); assay: Oxyhemoglobin NO capture assay with purified NOS; type: biochemical
Protocol: as §1

bsNOS = bsNOS (Bacillus subtilis (strain 168), UniProt O34453); assay: Imidazole displacement, spectral binding constant KS
[1] = Plasma pharmacokinetics and brain distribution in mice; type: in vivo, male BALB/c mice; conditions: for C0: back extrapolated conc.; for clearance / half-life: 2 mg/kg; for Vd: read-out: Vss
Protocol: Pharmacokinetic study. A group of forty-eight male mice were divided into two groups: Group 1 (2 mg/kg; i.v.) and Group 2 (10 mg/kg; p.o.) with each group comprising twenty-four mice. […] The blood samples were collected from a set of three mice at each time point in labeled micro centrifuge tubes containing K2EDTA as anticoagulant. Plasma samples were separated by centrifugation of whole blood and stored below −70° C. until bioanalysis. […] Tissue samples were homogenized using ice-cold phosphate buffer saline (pH 7.4) and homogenates were stored below −70° C. until analyzed. The total homogenate volume was three times that of the tissue weight. […] Specific LC-MS/MS and MRM conditions are described below. Pharmacokinetic parameters were calculated using the non-compartmental analysis tool of Phoenix WinNonlin (Version 6.3).

[2] = ratio Ki iNOS / Ki nNOS, Table 13
[3] = ratio Ki eNOS / Ki nNOS, Table 13
[4] = male, BALB/c, mouse, brain, iv, i.v. 2 mg/kg
[5] = male, BALB/c, mouse, iv, i.v. 2 mg/kg, plasma
[6] = male, BALB/c, mouse, plasma, iv, i.v. 2 mg/kg
[7] = male, BALB/c, mouse, po, p.o. 10 mg/kg, plasma
[8] = ratio Ki iNOS / Ki rat nNOS, Table 9
[9] = ratio Ki eNOS / Ki rat nNOS, Table 9

bsNOS, sequence (O34453 whole entry): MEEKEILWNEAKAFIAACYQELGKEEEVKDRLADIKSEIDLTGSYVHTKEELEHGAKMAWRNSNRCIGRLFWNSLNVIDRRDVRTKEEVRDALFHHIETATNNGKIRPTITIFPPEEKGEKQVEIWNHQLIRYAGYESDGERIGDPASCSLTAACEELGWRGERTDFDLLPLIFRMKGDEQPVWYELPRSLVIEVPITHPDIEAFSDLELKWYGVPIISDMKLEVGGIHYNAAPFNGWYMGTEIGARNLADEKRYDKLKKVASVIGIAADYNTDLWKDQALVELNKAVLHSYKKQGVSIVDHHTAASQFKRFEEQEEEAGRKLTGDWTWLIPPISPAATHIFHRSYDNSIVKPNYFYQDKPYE

Cc1cc(N)nc(CCc2cccc([C@H](N)Cc3cc(C)cc(N)n3)c2)c1 [Compound 3R, (R)-6-(2-Amino-2-(3-(2-(6-amino-4-methylpyridin-2-yl)ethyl)phenyl)ethyl)-4-methylpyridin-2-amine]
Ki (rat nNOS; Table 13, read-out: nNOS Ki): 0.122 µM | Ki (murine iNOS; Table 13, read-out: iNOS Ki): 15.6 µM

Cc1cc(N)nc(CCc2cccc([C@@H](N)Cc3cc(C)cc(N)n3)c2)c1 [Compound 3S, (S)-6-(2-Amino-2-(3-(2-(6-amino-4-methylpyridin-2-yl)ethyl)phenyl)ethyl)-4-methylpyridin-2-amine]
Ki (rat nNOS; Table 13, read-out: nNOS Ki): 0.144 µM | Ki (murine iNOS; Table 13, read-out: iNOS Ki): 17.7 µM

Cc1ccnc(CCc2cccc([C@H](N)Cc3cc(C)cc(N)n3)c2)c1 [Compound 5R, (R)-6-(2-Amino-2-(3-(2-(4-methylpyridin-2-yl)ethyl)phenyl)ethyl)-4-methylpyridin-2-amine]
Ki (rat nNOS; Table 13, read-out: nNOS Ki): 4.37 µM | Ki (murine iNOS; Table 13, read-out: iNOS Ki): > 100 µM | i/n selectivity (murine iNOS; [2]): >22 | e/n selectivity (bovine eNOS; [3]): 240

Cc1ccnc(CCc2cccc([C@@H](N)Cc3cc(C)cc(N)n3)c2)c1 [Compound 5S, (S)-6-(2-Amino-2-(3-(2-(4-methylpyridin-2-yl)ethyl)phenyl)ethyl)-4-methylpyridin-2-amine]
Ki (rat nNOS; Table 13, read-out: nNOS Ki): 0.903 µM | Ki (murine iNOS; Table 13, read-out: iNOS Ki): > 100 µM | i/n selectivity (murine iNOS; [2]): >110 | Ki (bovine eNOS; Table 13, read-out: eNOS Ki): 328 µM | e/n selectivity (bovine eNOS; [3]): 363

Cc1cc(N)nc(CCc2cccc(C(O)Cc3cc(C)cc(N)n3)c2)c1 (centres unmarked) [Compound 10]
Kd (bsNOS; KS bsNOS, imidazole displacement, Tables 1 and 4): 1.89 µM

Cc1cc(N)nc(COC[C@H](N)[C@H](C)OCc2cc(C)cc(N)n2)c1 [Compound 11]
Kd (bsNOS; KS (bsNOS), Table 5): 1.1 ± 0.1 µM

CCN(CCc1cccc(F)c1)Cc1cccc(NC(=N)c2cccs2)c1 [Compound 15]
Kd (bsNOS; KS (bsNOS), Table 5): 119 ± 25 µM

Nc1ccc2cc(CCNCc3cccc(F)c3)ccc2n1 [Compound 16]
Kd (bsNOS; KS (bsNOS), Table 5): 95 ± 20 µM

Nc1ccc2cc(CNCCc3cccc(F)c3)ccc2n1 [Compound 17]
Kd (bsNOS; KS (bsNOS), Table 5): 420 ± 130 µM

Nc1ccc2ccc(CCNCc3cccc(F)c3)cc2n1 [Compound 18]
Kd (bsNOS; KS (bsNOS), Table 5): 0.97 ± 0.04 µM

CNCCN(C)c1cc(C#N)cc(CCc2cc(C)cc(N)n2)c1 [Compound 19c, 3-(2-(6-Amino-4-methylpyridin-2-yl)ethyl)-5-(methyl(2-(methylamino)ethyl)amino)benzonitrile]
Ki (rat nNOS; Table 9, read-out: Ki Rat nNOS): 0.024 µM | AUClast ([1]; i.v. 2 mg/kg, brain): 789.07 ng·h/g | CL ([1]; i.v. 2 mg/kg, brain): 21.18 mL/min/kg | C0 ([1]; i.v. 2 mg/kg, brain): 100.28 ng/g | CL ([1]; i.v. 2 mg/kg, plasma): 184.16 mL/min/kg | T1/2 ([1]; i.v. 2 mg/kg, plasma): 1.12 h | clearance [1, 4]: 21 mL/min/kg | half-life [1, 4]: 24.8 h | Vd ([1]; male, BALB/c, mouse, iv, i.v. 2 mg/kg, brain): 44 L/kg | AUC(0-inf) [1, 5]: 181 ng·h/mL | AUC(0-t) [1, 5]: 180 ng·h/mL | C0 ([1]; male, BALB/c, mouse, iv, i.v. 2 mg/kg, plasma, read-out: C0): 472 ng/mL | Vd [1, 5]: 14.8 L/kg | clearance [1, 6]: 184 mL/min/kg | half-life [1, 6]: 1.1 h | Cmax ([1]; male, BALB/c, mouse, po, p.o. 10 mg/kg, brain): 39.3 ng/g | Tmax ([1]; male, BALB/c, mouse, po, p.o. 10 mg/kg, brain, read-out: Tmax): 4 h | AUC(0-inf) [1, 7]: 182 ng·h/mL | AUC(0-t) [1, 7]: 162 ng·h/mL | Cmax [1, 7]: 50.8 ng/mL | Tmax ([1]; male, BALB/c, mouse, po, p.o. 10 mg/kg, plasma, read-out: Tmax): 0.25 h | % F (oral bioavailability) ([1]; p.o. 10 mg/kg vs i.v. 2 mg/kg, AUClast used): 18% | AUClast ([1]; p.o. 10 mg/kg, brain): 673.67 ng·h/g | Tmax ([1]; p.o. 10 mg/kg, plasma): 0.25 h | Ki (murine iNOS; Table 9, read-out: Ki iNOS): 3.67 µM | Ki (bovine eNOS; Table 9, read-out: Ki eNOS): 24.9 µM

Nc1ccc2ccc(CNCCCc3cccc(F)c3)cc2n1 [Compound 21]
Kd (bsNOS; KS (bsNOS), Table 5): 3.2 ± 0.1 µM

CCNCCN(C)c1cc(C#N)cc(CCc2cc(C)cc(N)n2)c1 [Compound 21a]
Ki (rat nNOS; Table 9, read-out: Ki Rat nNOS): 0.064 µM | Ki (murine iNOS; Table 9, read-out: Ki iNOS): 11.5 µM | i/n selectivity (murine iNOS; [8]): 178.0 | Ki (bovine eNOS; Table 9, read-out: Ki eNOS): 37.6 µM | e/n selectivity (bovine eNOS; [9]): 583.7

Cc1cc(N)nc(CCc2cc(C#N)cc(N(C)CCNC(C)C)c2)c1 [Compound 21b]
Ki (rat nNOS; Table 9, read-out: Ki Rat nNOS): 0.125 µM | Ki (murine iNOS; Table 9, read-out: Ki iNOS): 45.1 µM | i/n selectivity (murine iNOS; [8]): 361.5 | Ki (bovine eNOS; Table 9, read-out: Ki eNOS): 39.9 µM | e/n selectivity (bovine eNOS; [9]): 320.1

Cc1cc(N)nc(CCc2cc(C#N)cc(N(C)CCNC3CC3)c2)c1 [Compound 21c]
Ki (rat nNOS; Table 9, read-out: Ki Rat nNOS): 0.114 µM | Ki (murine iNOS; Table 9, read-out: Ki iNOS): 28 µM | i/n selectivity (murine iNOS; [8]): 246.6 | Ki (bovine eNOS; Table 9, read-out: Ki eNOS): 31.1 µM | e/n selectivity (bovine eNOS; [9]): 274.0

Cc1cc(N)nc(CCc2cc(C#N)cc(N(C)CCc3cccc(F)c3)c2)c1 [Compound 21d]
Ki (rat nNOS; Table 9, read-out: Ki Rat nNOS): 1.8 µM | Ki (murine iNOS; Table 9, read-out: Ki iNOS): 45.3 µM | i/n selectivity (murine iNOS; [8]): 33.7

Cc1cc(N)nc(CCc2cc(C#N)cc(NCCc3cccc(F)c3)c2)c1 [Compound 22, 3-(2-(6-Amino-4-methylpyridin-2-yl)ethyl)-5-((3-fluorophenethyl)amino)benzonitrile]
Kd (bsNOS; KS (bsNOS), Table 5): 62 ± 25 µM

Cc1cc(N)nc(CCc2cc(F)cc(NCCN(C)C)c2)c1 [Compound 23a, N^1-(3-(2-(6-Amino-4-methylpyridin-2-yl)ethyl)-5-fluorophenyl)-N^2,N^2-dimethylethane-1,2-diamine]
Ki (rat nNOS; Table 9, read-out: Ki Rat nNOS): 0.07 µM | Ki (murine iNOS; Table 9, read-out: Ki iNOS): 3.31 µM | i/n selectivity (murine iNOS; [8]): 47.3 | Ki (bovine eNOS; Table 9, read-out: Ki eNOS): 9.58 µM | e/n selectivity (bovine eNOS; [9]): 136.9

CCNCCN(C)c1cc(F)cc(CCc2cc(C)cc(N)n2)c1 [Compound 23b, N^1-(3-(2-(6-Amino-4-methylpyridin-2-yl)ethyl)-5-fluorophenyl)-N^2-ethyl-N^1-methylethane-1,2-diamine]
Ki (rat nNOS; Table 9, read-out: Ki Rat nNOS): 0.032 µM | Ki (murine iNOS; Table 9, read-out: Ki iNOS): 6.38 µM | i/n selectivity (murine iNOS; [8]): 199.4 | Ki (bovine eNOS; Table 9, read-out: Ki eNOS): 17.9 µM | e/n selectivity (bovine eNOS; [9]): 558.4

Cc1cc(N)nc(CCc2cc(F)cc(N(C)CCNC3CC3)c2)c1 [Compound 23c, N^1-(3-(2-(6-Amino-4-methylpyridin-2-yl)ethyl)-5-fluorophenyl)-N^2-cyclopropyl-N^1-methylethane-1,2-diamine]
Ki (rat nNOS; Table 9, read-out: Ki Rat nNOS): 0.05 µM | Ki (murine iNOS; Table 9, read-out: Ki iNOS): 10.9 µM | i/n selectivity (murine iNOS; [8]): 217.8 | Ki (bovine eNOS; Table 9, read-out: Ki eNOS): 6.21 µM | e/n selectivity (bovine eNOS; [9]): 124.3

CCN(CCNC)c1cc(F)cc(CCc2cc(C)cc(N)n2)c1 [Compound 23d, N^1-(3-(2-(6-Amino-4-methylpyridin-2-yl)ethyl)-5-fluorophenyl)-N^1-ethyl-N^2-methylethane-1,2-diamine]
Ki (rat nNOS; Table 9, read-out: Ki Rat nNOS): 0.046 µM | Ki (murine iNOS; Table 9, read-out: Ki iNOS): 5.04 µM | i/n selectivity (murine iNOS; [8]): 109.6 | Ki (bovine eNOS; Table 9, read-out: Ki eNOS): 4.29 µM | e/n selectivity (bovine eNOS; [9]): 93.2

CNCCN(c1cc(F)cc(CCc2cc(C)cc(N)n2)c1)C1CC1 [Compound 23e, N^1-(3-(2-(6-amino-4-methylpyridin-2-yl)ethyl)-5-fluorophenyl)-N^1-cyclopropyl-N^2-methylethane-1,2-diamine]
Ki (rat nNOS; Table 9, read-out: Ki Rat nNOS): 0.056 µM | Ki (murine iNOS; Table 9, read-out: Ki iNOS): 8.33 µM | i/n selectivity (murine iNOS; [8]): 148.7 | Ki (bovine eNOS; Table 9, read-out: Ki eNOS): 7.89 µM | e/n selectivity (bovine eNOS; [9]): 140.9

Cc1cc(N)nc(CCc2cc(F)cc(NCc3cccc(Cl)c3)c2)c1 [Compound 23f, 6-(3-((3-Chlorobenzyl)amino)-5-fluorophenethyl)-4-methylpyridin-2-amine]
Ki (rat nNOS; Table 9, read-out: Ki Rat nNOS): 0.027 µM | Ki (murine iNOS; Table 9, read-out: Ki iNOS): 9.56 µM | i/n selectivity (murine iNOS; [8]): 354.1 | Ki (bovine eNOS; Table 9, read-out: Ki eNOS): 7.08 µM | e/n selectivity (bovine eNOS; [9]): 262.0

Cc1cc(N)nc(CCc2cc(F)cc(NCc3cccnc3)c2)c1 [Compound 23g, 6-(3-Fluoro-5-((pyridin-3-ylmethyl)amino)phenethyl)-4-methylpyridin-2-amine]
Ki (rat nNOS; Table 9, read-out: Ki Rat nNOS): 1.03 µM | Ki (murine iNOS; Table 9, read-out: Ki iNOS): 11 µM | i/n selectivity (murine iNOS; [8]): 10.7 | Ki (bovine eNOS; Table 9, read-out: Ki eNOS): 10.3 µM | e/n selectivity (bovine eNOS; [9]): 10.0

Cc1cc(N)nc(CCc2cc(F)cc(N3CCNCC3)c2)c1 [Compound 23h, 6-(3-Fluoro-5-(piperazin-1-yl)phenethyl)-4-methylpyridin-2-amine]
Ki (rat nNOS; Table 9, read-out: Ki Rat nNOS): 0.058 µM | Ki (murine iNOS; Table 9, read-out: Ki iNOS): 3.51 µM | i/n selectivity (murine iNOS; [8]): 60.2 | Ki (bovine eNOS; Table 9, read-out: Ki eNOS): 4.84 µM | e/n selectivity (bovine eNOS; [9]): 82.8

Cc1cc(N)nc(CCc2cc(F)cc(NC3CCNCC3)c2)c1 [Compound 23i, 6-(3-Fluoro-5-(piperidin-4-ylamino)phenethyl)-4-methylpyridin-2-amine]
Ki (rat nNOS; Table 9, read-out: Ki Rat nNOS): 0.121 µM | Ki (murine iNOS; Table 9, read-out: Ki iNOS): 13.5 µM | i/n selectivity (murine iNOS; [8]): 110.9 | Ki (bovine eNOS; Table 9, read-out: Ki eNOS): 4.89 µM | e/n selectivity (bovine eNOS; [9]): 40.2
